Experimental data as given in patent publication US6177438A, “Morphinan derivatives and pharmaceutical use thereof” (priority 1993, dated 2001).
Where a name gives a salt, the structure may show the parent alone.

How the values were obtained:
[1] = test system: cultured nerve cells (cerebral cortex); assay: cells; settings: Rattus norvegicus, Cerebral cortex neuron, 24 h, read-out: ED50 (protection against glutamic acid toxicity)
[2] = test system: cultured nerve cells (cerebral cortex); settings: 10 mM glutamic acid, 24 hours
[3] = molecular target: T1, κ receptor (Mus musculus, UniProt P33534); assay: Opioid activity test using an extracted mouse vas deferens preparation, Ke with norBNI; parameters: species or system male ddy mouse; settings: for Ke, norBNI: κ, norBNI added; for receptor selectivity of agonist (κ): in words
T1 construct: from tissue; host or cells: mouse (male ddy) vas deferens
T1 sequence (P33534 whole entry): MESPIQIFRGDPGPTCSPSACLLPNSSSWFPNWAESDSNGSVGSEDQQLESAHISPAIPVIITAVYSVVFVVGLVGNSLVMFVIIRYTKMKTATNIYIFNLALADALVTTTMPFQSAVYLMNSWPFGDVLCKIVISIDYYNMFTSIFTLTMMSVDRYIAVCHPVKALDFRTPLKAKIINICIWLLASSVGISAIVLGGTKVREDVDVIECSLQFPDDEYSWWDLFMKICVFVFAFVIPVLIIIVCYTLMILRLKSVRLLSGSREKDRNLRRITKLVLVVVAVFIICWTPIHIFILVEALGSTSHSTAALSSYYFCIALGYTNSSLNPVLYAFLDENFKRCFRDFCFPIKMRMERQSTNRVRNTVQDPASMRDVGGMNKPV

[4] = test system: extracted mouse vas deferens preparation; assay: Opioid activity test using an extracted mouse vas deferens preparation (suppression of electrically induced contractions); parameters: species or system male ddy mouse; settings: electrical stimulus 0.1 Hz, 37° C.
Method in brief: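 Male ddY mouse vas deferens in Krebs-Henseleit at 37° C, 5% CO2/95% O2, field-stimulated at 0.1 Hz, 5.0 ms; isometric contractions recorded. After adding naloxone, NTI or norBNI, test compound was added cumulatively after ~20 min; Ke derived from the difference in agonist efficacies.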

[5] = molecular target: T2, μ receptor (Mus musculus, UniProt P42866); assay: Opioid activity test using an extracted mouse vas deferens preparation, Ke with naloxone; parameters: species or system male ddy mouse; settings: naloxone added
T2 construct: naloxone as mu antagonist (printed 'agonist')
T2 sequence (P42866 whole entry): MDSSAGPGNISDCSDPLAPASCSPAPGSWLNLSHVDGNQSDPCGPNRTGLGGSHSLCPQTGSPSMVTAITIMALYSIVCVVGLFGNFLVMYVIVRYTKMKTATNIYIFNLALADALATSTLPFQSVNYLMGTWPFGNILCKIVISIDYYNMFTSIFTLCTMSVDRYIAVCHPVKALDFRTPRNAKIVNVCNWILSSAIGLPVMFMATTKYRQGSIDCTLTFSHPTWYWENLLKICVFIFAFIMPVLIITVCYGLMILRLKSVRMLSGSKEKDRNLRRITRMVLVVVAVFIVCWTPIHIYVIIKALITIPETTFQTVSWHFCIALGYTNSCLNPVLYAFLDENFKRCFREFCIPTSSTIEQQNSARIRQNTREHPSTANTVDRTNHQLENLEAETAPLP
Description: A male ddy mouse was used in this test. The vas deferens extracted from the animal was suspended in a Magnus tube filled with Krebes-Henseleit solution (NaCl 118 mM; KCl 4.7 mM; CaCl2 2.5 mM; KH2 PO4 1.1 mM; NaHCO3 25 mM; Glucose 11 mM) warmed to 37° C. and ventilated with 5% carbon dioxide and 95% oxygen. Electrical stimulus was performed at 0.1 Hz for 5.0 ms by means of ring-shaped platinum electrodes located above and below. Tissue contractions were recorded on a polygraph using an isometric transducer.
After adequately washing with nutrient solution and the contraction reaction stabilized, the μ agonist, naloxone, the δ agonist, NTI, or the κ agonist, norBNI, was added after which the test compound was again cumulatively added after roughly 20 minutes. The Ke value was calculated using the following calculation formula from the difference in the efficacies of both agonists.
Ke=[Conc. of added agonist]/(IC50 ratio-1)
IC50 ratio=IC50 in the presence of agonist/IC50 in the absence of agonist

[6] = Diuretic action (urine output for 5 hours after physiological saline loading in rats); format: in vivo, male Wistar rats; settings: for ED (200% urine output) / ED (500% urine output): Rattus norvegicus, sc, 5 hours after saline 20 ml/kg p.o.; for ED (200% urine output): dose giving urine output of 200 (non-dosed group = 100); for ED (500% urine output): dose giving urine output of 500 (non-dosed group = 100); for Diuretic action (in words): s.c., from ED200 values
Method in brief: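 Male Wistar rats (7-8 weeks), water withheld 1 h, bladder emptied, drug given subcutaneously; 30 min later 20 ml/kg saline orally. Urine collected 5 h after saline loading in metabolic cages; ED200 and ED500 are doses giving urine output of 200 and 500 relative to non-dosed group at 100.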

[7] = molecular target: T3, δ receptor (Mus musculus, UniProt P32300); parameters: species or system male ddy mouse; settings: mouse vas deferens; for Ke, NTI: δ, NTI added
T3 construct: The vas deferens extracted from the animal was suspended in a Magnus tube; from tissue; host or cells: mouse (male ddy) vas deferens
T3 sequence (P32300 whole entry): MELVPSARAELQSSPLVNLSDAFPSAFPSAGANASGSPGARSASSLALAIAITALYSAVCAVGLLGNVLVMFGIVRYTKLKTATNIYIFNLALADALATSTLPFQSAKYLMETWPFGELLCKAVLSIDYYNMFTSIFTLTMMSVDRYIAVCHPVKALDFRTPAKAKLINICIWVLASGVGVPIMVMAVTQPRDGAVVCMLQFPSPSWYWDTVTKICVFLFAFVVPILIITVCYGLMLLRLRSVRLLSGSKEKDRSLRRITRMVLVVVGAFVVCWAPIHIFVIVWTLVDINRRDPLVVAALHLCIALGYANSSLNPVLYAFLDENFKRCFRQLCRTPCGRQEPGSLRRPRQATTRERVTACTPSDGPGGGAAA

[8] = test system: acetic acid-induced writhing in ddy mice; assay: animal or person; format: in vivo, 5 week old ddy mice; settings: for ED50: Mus musculus, sc, s.c. 15 minutes before acetic acid, read-out: ED50; for analgesic activity: s.c., in words
Description: 5 week old ddy mice were used in this test. After intraperitoneal administration of 0.1 ml of 0.6% aqueous acetic acid per 10 g of body weight, the number of writhing reactions that occurred in 10 minutes starting 10 minutes after administration was evaluated for the indicator. The test drug was administered subcutaneously into the backs of the animals 15 minutes before administration of acetic acid.

SMILES	EC50 [1] [nM]	Protective action against cytotoxicity caused by glutamic acid (in words) [2]	Ke, norBNI [3] [nM]	IC50 [4] [nM]	Ke, Naloxone [5] [nM]	ED (200% urine output) [6] [µg/kg]	ED (500% urine output) [6] [µg/kg]	receptor selectivity of agonist (δ) ([7]; in words)	Ke, NTI [7] [nM]	ED50 [8] [µg/kg]	analgesic activity [8]	receptor selectivity of agonist (κ) [3]	Diuretic action (in words) [6]
CN(Cc1ccccc1)[C@@H]1CC[C@@]2(O)[C@H]3Cc4ccc(O)c5c4[C@@]2(CCN3CC2CC2)[C@H]1O5 [Compound 8, 6β-(N-Benzyl)methylamino-17-cyclopropylmethyl-4,5α-epoxy-3,14β-dihydroxymorphinan]	5750	clearly demonstrated action that protects nerve cells from cytotoxicity caused by glutamic acid	–	–	–	–	–	–	–	–	–	–	–
CO[C@@H](C(=O)N(C)[C@H]1CC[C@@]2(O)[C@H]3Cc4ccc(O)c5c4[C@@]2(CCN3CC2CC2)[C@H]1O5)c1ccccc1 [Compound 30, 17-cyclopropylmethyl-3,14β-dihydroxy-4,5α-epoxy-6α-[(R)-N-methylmethoxyphenylacetamido]morphinan.cndot.hydrochloride]	7950	clearly demonstrated action that protects nerve cells from cytotoxicity caused by glutamic acid	–	–	–	–	–	–	–	–	–	–	–
CN(C(=O)/C=C/c1cccc([N+](=O)[O-])c1)[C@H]1CC[C@@]2(O)[C@H]3Cc4ccc(O)c5c4[C@@]2(CCN3CC2CC2)[C@H]1O5 [Compound 97, 17-cyclopropylmethyl-3,14β-dihydroxy-4,5α-epoxy-6α-(N-methyl-3-nitrocinnamamido)morphinan.cndot.phosphate]	–	–	13.9	0.247	163	4.5	93.9	selective agonists for δ receptors	2.92	1.9	–	–	–
CN(C(=O)/C=C/c1cccc(F)c1)[C@H]1CC[C@@]2(O)[C@H]3Cc4ccc(O)c5c4[C@@]2(CCN3CC2CC2)[C@H]1O5 [Compound 96, 17-cyclopropylmethyl-3,14β-dihydroxy-4,5α-epoxy-6α-(N-methyl-3-fluorocinnamamido)morphinan.cndot.tartrate]	–	–	4.21	0.346	32.5	1.3	54.9	–	1.61	0.86	particularly strong analgesic activity	–	–
COc1cccc(/C=C/C(=O)N(C)[C@@H]2CC[C@@]3(O)[C@H]4Cc5ccc(O)c6c5[C@@]3(CCN4CC3CC3)[C@H]2O6)c1 [Compound 63, 17-cyclopropylmethyl-3,14β-dihydroxy-4,5α-epoxy-6β-(N-methyl-3-methoxycinnamamido)morphinan.cndot.tartrate]	–	–	1.60	0.746	60.9	3.8	309	–	96.9	1.1	particularly strong analgesic activity	selective agonists for κ receptors	–
CC(=O)Oc1ccc2c3c1O[C@H]1[C@H](N(C)C(=O)/C=C/c4cccc(C(F)(F)F)c4)CC[C@@]4(O)[C@@H](C2)N(CC2CC2)CC[C@]314 [Compound 141, 17-cyclopropylmethyl-3-acetoxy-14β-hydroxy-4,5α-epoxy-6β-(N-methyl-3-trifluoromethylcinnamamido)morphinan.cndot.tartrate]	–	–	1.39	0.16	142	31.9	3450	–	184	10	–	selective agonists for κ receptors	–
CN(C(=O)CCc1ccccc1)[C@H]1CC[C@@]2(O)[C@H]3Cc4ccc(O)c5c4[C@@]2(CCN3CC2CC2)[C@H]1O5 [Compound 22, 17-Cyclopropylmethyl-4,5α-epoxy-3,14β-dihydroxy-6α-(N-methyl-3-phenylpropionamido)morphinan.cndot.tartrate]	–	–	5.53	1.2	800	0.95	17	–	545	5.1	–	selective agonists for κ receptors	extremely strong diuretic action
CCCCCC(=O)N(C)[C@H]1CC[C@@]2(O)[C@H]3Cc4ccc(O)c5c4[C@@]2(CCN3CC2CC2)[C@H]1O5 [Compound 39, 17-cyclopropylmethyl-3,14β-dihydroxy-4,5α-epoxy-6α-(N-methylhexanamido)morphinan.cndot.tartrate]	–	–	1.01	0.568	89.9	4.1	228	–	99.3	8.8	–	selective agonists for κ receptors	–
CN(C(=O)OCc1ccc([N+](=O)[O-])cc1)[C@H]1CC[C@@]2(O)[C@H]3Cc4ccc(O)c5c4[C@@]2(CCN3CC2CC2)[C@H]1O5 [Compound 43, 17-cyclopropylmethyl-3,14β-dihydroxy-4,5α-epoxy-6α-(N-methyl-4-nitrobenzyloxycarbamido)morphinan.cndot.hydrochloride]	–	–	5.31	0.65	409	0.54	4.4	–	22.5	5.5	–	selective agonists for κ receptors	extremely strong diuretic action
CN(C(=O)OCc1ccccc1)[C@H]1CC[C@@]2(O)[C@H]3Cc4ccc(O)c5c4[C@@]2(CCN3CC2CC2)[C@H]1O5 [Compound 42, 17-cyclopropylmethyl-3,14β-dihydroxy-4,5α-epoxy-6α-(N-methylbenzyloxycarbamido)morphinan.cndot.tartrate]	–	–	0.905	0.251	186	0.85	6.1	–	63.5	1.36	particularly strong analgesic activity	selective agonists for κ receptors	extremely strong diuretic action
CN(C(=O)CCCc1ccccc1)[C@@H]1CC[C@@]2(O)[C@H]3Cc4ccc(O)c5c4[C@@]2(CCN3CC2CC2)[C@H]1O5 [Compound 150, 17-cyclopropylmethyl-4,5α-epoxy-3,14β-dihydroxy-6β-(N-methyl-4-phenylbutanoylamido)morphinan tartrate]	–	–	0.303	1.67	137	42.9	762	–	55.6	35	–	selective agonists for κ receptors	–
CCCCOC(=O)N(C)[C@H]1CC[C@@]2(O)[C@H]3Cc4ccc(O)c5c4[C@@]2(CCN3CC2CC2)[C@H]1O5 [Compound 47, 17-cyclopropylmethyl-4,5α-epoxy-3,14β-dihydroxy-6α-(N-methylbutyroxycarbamido)morphinan.cndot.tartrate]	–	–	0.140	0.439	63.5	1.6	–	–	10.4	0.52	particularly strong analgesic activity	selective agonists for κ receptors	–
COc1cccc(C#CC(=O)N(C)[C@@H]2CC[C@@]3(O)[C@H]4Cc5ccc(O)c6c5[C@@]3(CCN4CC3CC3)[C@H]2O6)c1.O=C(O)C(O)C(O)C(=O)O [Compound 173, 17-cyclopropylmethyl-3,14β-dihydroxy-4,5α-epoxy-6β-[N-methyl-3-(3-methoxyphenyl)propiolamido]morphinan tartrate]	–	–	0.11	0.02	19.6	27.5	1550	–	21.3	11	–	selective agonists for κ receptors	–
